From patent US20250032484A1, “THERAPEUTIC TARGETS AND AGENTS FOR THE TREATMENT OF POSTTRAUMATIC STRESS DISORDER” (priority 2021, published 2025)

Assays:
[1] = tested on: VA patients with PTSD (PTSD symptoms, PTSD Checklist); experiment: TreeScan nested case-control study of medications associated with PTSD symptom improvement (PTSD Checklist) in VA records; assay type: in vivo, human
Description: Study Sample and Data Sources. A nested case-control study was conducted within a previously established retrospective cohort that included all VA users with a clinical diagnosis of PTSD (International Classification of Diseases [ICD]-9:309.81, ICD-10: F43.1x) from Oct. 1, 1999 through Sep. 30, 2019 (Shiner et al. (2021) J Eval Clin Pract.). The data source contains information on services use, clinical diagnoses, filled prescriptions, and patient-reported outcome measures (PROMs) for PTSD using the PTSD Checklist (PCL) for these patients. This study was approved by the Veterans Institutional Review Board of Northern New England.
The goal of the current study was to evaluate any filled medications associated with PTSD symptom improvement, and as such, the analytic sample for this study included only patients with PROMs that were at least 30 days apart. 30 days was selected to allow for medications to be taken for at least one full course (typically 28 days). Patients with PROMs more than 365 days apart were excluded as these are unlikely to provide an accurate assessment of PTSD symptom change between the two time points. For patients who had two overlapping PROM intervals, those closest to 84 days in length were chosen to emulate typical PTSD medication efficacy trials (Watts et al. (2013) J Clin Psychiatry. 74: e541-550). When a patient had two or more overlapping intervals at exactly 84 days, the historically earliest interval was chosen. If patients had multiple non-overlapping intervals, all were included. Patients who met the selection criteria for PTSD in the original cohort and had at least one PROM pair where they started a new medication (defined below) constituted the overall analytic sample for the current study.
PTSD Improvement Cases and No Improvement Controls. In order to maximize the number of patients with available symptomatic measurement, two different versions of a PROM for PTSD were integrated into a single dataset (Shiner et al. (2021) J Eval Clin Pract.). The two PROMs were the PCL versions aligned to the Diagnostic and Statistical Manual of Mental Disorders (DSM), version IV and Version 5 (APA (2000): Diagnostic and Statistical Manual of Mental Disorders. 4th Edition. Text Revision: DSM-IV-TR. Arlington, VA: American Psychiatric Association: APA (2013): Diagnostic and Statistical Manual of Mental Disorders: Fifth Edition (DSM-5). Washington, D.C.: American Psychiatric Association), which will heretofore be called the PCL-IV and the PCL-5 (Blevins et al. (2015) J Trauma Stress. 28:489-498: Weathers et al. (1993) Trauma. Coping. and Adaptation. San Antonio, Texas: International Society for Traumatic Stress Studies, 9th Annual Meeting). […] A validated crosswalk (ICC=0.96) was used to convert all values to PCL-5 scoring (Moshier et al. (Under review): An empirical crosswalk for the PTSD Checklist: Translating DSM-IV to DSM-5). PTSD improvement cases were defined by a clinically meaningful improvement, which was a decrease of 15 points or more between assessment points (Lee et al. (2019) Reliable Change Index and Clinically Significant Margins for the CAPS-5 and PCL-5 among Veterans. Boston, MA: International Society for Traumatic Stress Studies, 35th Annual Meeting). […] Thus, the no PTSD improvement control group was defined as worsening of symptoms or reductions of up to 7 points on the PCL. Improvements between 8 and 14 points were of uncertain clinical significance and were therefore excluded.
Identification and Classification of New Medications. The predictors of interest were initiation of medications for any indication. Candidate agents included those that were started in the interval between PCL pairs and continued for at least a 28-day supply. When patients started multiple medications between a given PCL pair, they contributed information for each of the medications in the tree.

[2] = FDA clinical review NDA 209394; cited from earlier work
[3] = baseline PCL 38 or higher, PTSD diagnosis within 30 days, without any concurrent evidence-based treatment
[4] = baseline PCL score of 38 or higher and PTSD diagnosis within 30 days
[5] = overall sample without any concurrent evidence-based treatment

## glecaprevir
[1]; all patients in the overall sample
  EXP = Expected Cases: 16
[1]; [3]
  EXP = Expected Cases: 4
  O:E = Observed Cases over Expected Cases: 3.52
  OBS = Observed Cases: 14
[1]; [4]
  EXP = Expected Cases: 14
  O:E = Observed Cases over Expected Cases: 2.21
  OBS = Observed Cases: 30
[1]; case = improved by 15 or more points on PTSD Checklist, all patients in the overall sample
  OBS = Observed Cases: 33
[1]; improvement in PTSD, all patients in the overall sample
  O:E = Observed Cases over Expected Cases: 2.09
[1]; improvement in PTSD, all patients in the overall sample, listed as glecaprevir
  O:E = Observed Cases over Expected Cases: 2.09
[1]; [5]
  EXP = Expected Cases: 5
  O:E = Observed Cases over Expected Cases: 3.09
  OBS = Observed Cases: 14
[2]
  BBB permeability: poor BBB permeability
